This is an account of results in US12582720B2, “Compound for preventing or treating lipid metabolism-related diseases” (Fudan University, priority 2020, dated 2026).

Series [1] has as its target T1, LC3B (Homo sapiens, UniProt Q9GZQ8). Nature of the series: OI-RD detection of affinity activity with LC3B. In kind it is binding. More on the design: Gly-Gly (two glycines added in place of the start Met); His8 (followed by TEV site) (N, cleaved yes); GST (from the pGEX-6P1 backbone) (N, cleaved yes); made in house; host or cells: Escherichia coli BL21(DE3)pLysS. To be noted: LC3B 238 nM, read-out: Kd (nM), equilibrium dissociation constant of affinity reaction between the compound and LC3B detected by OI-RD. Here is the method:
Each compound was dot printed 3 copies. The compounds that not fixed on surface of the chips were washed, and the chips were sealed and cleaned. OI-RD microscope was used to scan the images. […] The chips were washed and scanned. OI-RD images before, during and after incubation with target protein were obtained. The signal change in real-time dynamic change image was analyzed, and the signal was collected once per 10 millisecond.

The target of series [2] is T1, LC3B. Nature of the series: MST detection of affinity activity with LC3B. In kind it is binding. More on the design: His8 (with TEV site) (N); made in house; host or cells: Escherichia coli BL21(DE3)pLysS. The note with it: MST; read-out: Kd, equilibrium dissociation constant between the LC3 binding compound and LC3B. The gist of the method: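 Microscale thermophoresis uses recombinant GST-LC3B labelled with RED-NHS fluorophore at 500 nM. Buffer is 20 mM HEPES pH 7.4 with 150 mM NaCl. Readings are taken at 40% infrared laser power and 20% LED power.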

The subject of series [3] is db/db mice. Nature of the series: Effect of the compound on db/db mouse. In kind it is in vivo. The note with it: 30 mg/kg ip, 8 mice per group. An excerpt: Experimental animals: nineteen-week-old db/db male mice (C57BL/6J-Lepr^db/Lepr^db) were obtained from Shanghai Model Organisms Co., Ltd., and acclimatized for at least 1 week before experiments. The mice had ad libitum access to standard chow and water.
Normal control: The C57BL/6 male mice fed on standard irradiated chow diet (Shuyishuer Inc. cat. no. D12450J) from Changzhou Shuyishuer Biotechnology Co., Ltd. (Shuyishuer Inc.) were used as the normal control.
Mice were randomly divided into 7 groups, wherein 8 mice in each group, and the mice in each group were subjected to intraperitoneal injection to administer: (1) only vehicle (no DMSO) group: 0% DMSO+39% PEG300 (Selleck, cat. no. S6704)+5% Tween-80 (Selleck, cat. no. S6702)+56% distilled water, (2) DMSO group: 1% DMSO+39% PEG300+5% Tween-80+55% H2O (DMSO vehicle), (3) C3 group: Compound 3A was in DMSO vehicle, (4) C4 group: Compound 4A in DMSO vehicle, (5) SIII group: Sudan III DMSO vehicle, (6) GW5074 group: Compound A1 in DMSO vehicle, (7) DP group: Compound A5 in DMSO vehicle. For groups (3)-(7), the compound (30 mg/kg, administration volume 150 μL) was administered through intraperitoneally injection for consecutive 2 weeks, and once a day. The food and water intake were measured with an analytical electronic balance.
Bodyweight was weighed every day.
If time permitted, tail vein blood (30-50 μL) was collected every 1-3 days.
24 hours after the time point of the last injection, end point maxillary surface blood sampling was performed on each mouse. All mice were Euthanized by cervical dislocation, and then tissue sample (e.g., liver samples) were obtained and stored in Eppendorf tubes at −80° C. for assay.
12 days after initiation of administration, each mouse was scanned by a minispec nuclear magnetic resonance (NMR) instrument (Bruker LF50 II “Minispec” body composition analyzer, Bruker Optics) that was designed for experimental animals, and based on the measurement of solid and liquid parts of the samples, the body fat and lean body weight were determined by this device.
Serum: Tail vein blood samples (30-50 μL) were left to coagulate in […] blood collection tubes (Jiangsu Kangjian Medical Products Co., Ltd., model KJ002) at room temperature without interference, and then centrifuged at 2,000×g for 10 minutes at 4° C. to remove the clot. Supernatant was collected to obtain the serum.
Liver: Liver samples were obtained as described in (2). 100 mg of liver tissue was homogenized in 0.9 mL of absolute alcohol under ice-cold conditions, and then centrifuged (2,500 r.p.m/min, 10 min). Supernatant was collected, and then stored at −80° C.
The kits were used according to the instruction from manufacturer (TAG: TG kit, cat. no. A110-1-1; TC: T-CHO kit, cat. no. A111-1. FFA: NEFA kit, cat. No. A042-2-1; they were all from Nanjing Jiancheng Bioengineering Institute). TAG, TC and FFA levels in serum and liver samples were determined.
According to the lipidomic method as described above, the contents of liver total lipid, glycerolipid, sterol lipid, neutral sphingolipid and polar lipid were analyzed. The log 2-fold change (log2 FC) and statistical significance (p-value) relative to the DMSO group were calculated.

In series [4] the test system is lipid droplets in 3T3-L1 fat precursor cell differentiated fat cells. The series can be described thus: Lipid droplets in 3T3-L1 fat precursor cell differentiated fat cells. In kind it is cell-based, mouse. To be noted: 3T3-L1 differentiated fat cells, 5 μM, 24 h.

In the case of `O=C1Nc2ccc(I)cc2C1=Cc1cc(Br)c(O)c(Br)c1` [Compound A1, 3-(3,5-dibromo-4-hydroxylbenzylidene)-5-iodoindolin-2-one, reference compound], the Kd was determined as 468 nM in series [1] and 4.76 µM in series [2]. Besides, the “mice died in the experiment” value in series [3] is on record as “One mouse”. In addition, in series [4], the “amount/size of lipid droplets” value is “no significant effect”.
